Read-outs that look alike come from different tables or passages of the source. Where only a bound is given, the exact number is not on record here.

The test system of experiment [1] is MDA‐MB‐231. Put plainly: CCK-8 cell proliferation assay. The format is cell-based. To be noted: CCK-8, 72 h. The method, then: The base medium for MDA‐MB‐453 cell line is DMEM medium (CORNING, USA). All other cell lines were cultured in RPMI‐1640 medium supplemented with 10% FBS, 100 U/ml of penicillin, and […] of streptomycin in 5% CO2 at 37℃. The cells in the logarithmic growth phase were used for the experiments.
(§1) Cells were seeded in 96‐well plate in complete medium (1000–6000 cells/well) and cultured for overnight. Then the cells were exposed to gradient concentrations (0.0005–10 μM) of compounds. Cell proliferation was analyzed by Cell Counting Kit 8 (CK04, Dojindo Laboratories, Japan) after co‐incubation for a further 72 h. IC50 values were calculated by fitting of concentration–response curves using GraphPad Prism 8.01 software. Each assay was repeated at least three times.
The expression and activation levels of FGFR1–4 in these cells were determined via western blot experiments (Figure S1).
For orientation: Tetrazolium assays rely on reduction of a dye to a coloured formazan, in cell work by metabolically active cells.

Experiment [2] concerns Ba/F3(+IL‐3). Put plainly: CCK-8 proliferation assay in parental Ba/F3 cells. The format is cell-based. To be noted: Mus musculus, read-out: IC50 (μΜ) Ba/F3(+IL‐3). The method, then: (§2) The Ba/F3 cell lines stably expressing FGFR1, FGFR1‐V561M, FGFR1‐V561F, FGFR1‐K656N, and FGFR1‐K656E were self‐established through electroporation pCDNA3.1‐TEL plasmids using the Amaxa Cell Line Nucleofector Kit V (Lonza, Cologne, Germany). Stable cell lines were selected by G418 (Merck, USA) and then withdrawal of IL‐3 (R&D). […] Parental Ba/F3 cells were maintained in RPMI 1640 supplemented with 10% FBS, 100 U/ml of penicillin, […] of streptomycin, and 10 ng/ml of IL‐3, while all Ba/F3 stable cell lines were cultured in the same medium without IL‐3.
as §1
(§3) There is, however, no commercially available FGFR1 mutant kinase to validate this. Therefore, we constructed Ba/F3 model cells stably expressing FGFR1‐WT, K656E, K656N, V561M, and V561F mutations.

The subject of experiment [3] is Ba/F3‐FGFR1‐V561F xenograft. Put plainly: Mouse xenograft tumor model. It is filed as in vivo, CB17‐SCID mice. The text has this:
(§4) All animal studies were approved by the Institutional Animal Care and Use Committee. Male CB17‐SCID mice were purchased from Vital River Laboratory Animal Technology Inc. (Beijing, China). The right flanks of SCID mice were subcutaneously injected with 2 x 10^6 Ba/F3‐FGFR1, Ba/F3‐FGFR1‐V561F, or Ba/F3‐FGFR1‐V561M cells, respectively. When the average tumor volume reached 100–200 mm^3, mice bearing tumor were randomly divided into groups and treated with compounds or vehicle. All the compounds were suspended in 0.5% CMC‐Na aqueous solution. […] The body weight and tumor volume of animals were measured once every 2 days. Tumor volumes were calculated as L×W×W/2, where L and W are the length and width of the tumor, respectively. At the experiment terminal, tumor tissues were dissected, paraffin embedded, and sectioned for hematoxylin and eosin (H&E), immunohistochemistry (IHC), and TUNEL analysis.

The subject of experiment [4] is Ba/F3‐FGFR1 xenograft. Put plainly: Mouse xenograft tumor model. It is filed as in vivo, CB17‐SCID mice. To be noted: for tumor growth inhibition (TGI): oral gavage.
Text: as §4

For experiment [5], the system named is Ba/F3‐FGFR1‐V561F. Put plainly: Cell cycle analysis by flow cytometry (propidium iodide). It is filed as cell-based. The method, then: About 6 × 10^5 cells were re‐suspended in 150 μl of BD Cytofix/Cytoperm buffer solution I for 10 min at room temperature. The cell suspensions were added with BD Cytofix/Cytoperm buffer solution II and incubated with another 10 min at room temperature, and then incubated with 200 μl of propidium iodide buffer (0.1 mg/ml) in the dark for 10 min at 4℃. Assays were performed with a Guava easyCyte flow cytometer (Merck, USA).

In experiment [6] the test system is Ba/F3‐FGFR1‐V561F. Put plainly: Apoptosis assay by flow cytometry (Annexin V / 7-AAD). The format is cell-based. The method, then:
After incubation, cells were collected and washed twice with pre‐cold PBS. About 6 × 10^5 cells were resuspended in 100 μl of 1× BD binding buffer solution (#556454, BD), and then stained with 7‐ADD (#559925, BD) and Annexin V‐PE (#556422, BD) in the dark for 15 min. Finally, 400 μl of 1×BD binding buffer solution were added to stop dyeing. The cells were then measured on a Guava easyCyte flow cytometer (Merck, USA).
On the technique in general: A flow cytometer gives signals particle by particle.

Experiment [7] deals with Ba/F3‐FGFR1‐V561F. The experiment in a line: CCK-8 proliferation assay in Ba/F3 stable cells. It is filed as cell-based. The following applies: Mus musculus. How it is done: as §2, §1, §3
Experiment [8] relates to Ba/F3‐FGFR1‐K656N. The experiment in a line: CCK-8 proliferation assay in Ba/F3 stable cells. The format is cell-based. To be noted: Mus musculus, read-out: IC50 (μΜ) Ba/F3‐FGFR1‐K656N. How it is done: as §2, §1, §3
In experiment [9] the test system is Ba/F3‐FGFR1. Put plainly: CCK-8 proliferation assay in Ba/F3 stable cells. To be noted: Mus musculus, read-out: IC50 (μΜ) Ba/F3‐FGFR1. The format is cell-based. How it is done:
as §2, §1, §3

Experiment [10] has as its system Ba/F3‐FGFR1‐K656E. Put plainly: CCK-8 proliferation assay in Ba/F3 stable cells. It is filed as cell-based. To be noted: Mus musculus. How it is done: as §2, §1, §3
For experiment [11], the system named is Ba/F3‐FGFR1‐V561M. The experiment in a line: CCK-8 proliferation assay in Ba/F3 stable cells. The format is cell-based. To be noted: Mus musculus. The method, then:
as §2, §1, §3

For experiment [12], the system named is FGFR1 signal pathway in Ba/F3‐FGFR1‐V561F. The experiment in a line: Western blot of FGFR1 signal pathway. It is filed as cell-based. How it is done:
Cells were treated with different concentrations of compound or DMSO for indicated time. Then, cells were lysed with 1 × SDS sample lysis buffer (recommended by CST). […] After blocking with 5% BSA in TBST solution (0.5% Tween‐20) at room temperature for 4 hrs, the membranes were incubated with the corresponding primary antibody (1:2000–1:200) at 4℃ overnight. After washing with TBST for 3–5 times, the HRP‐conjugated secondary antibodies were incubated for 2 hrs. The protein signals were detected with Amersham Imager 600 system (GE, Boston, MA, USA) using an ECL western blotting detection kit (Thermo Fisher Scientific, Waltham, MA, USA).
Cell lysates were separated by sodium dodecyl sulfate‐polyacrylamide gel electrophoresis (SDS‐PAGE) and analyzed by western blot for phosphorylated FGFR1, FGFR1, phosphorylated FRS2, FRS2, phosphorylated AKT (Ser473), AKT, phosphorylated Erk, and Erk. GAPDH was used as a control
In general terms: Immunoblotting shows a protein as a band on a membrane.

[13] abbreviates: Homo sapiens, MDA-MB-231, 72 h, read-out: antiproliferative IC50, MDA‐MB‐231, negative control.

Turning to `CCN1CCN(c2ccc(Nc3cc(N(C)C(=O)Nc4c(Cl)c(OC)cc(OC)c4Cl)ncn3)cc2)CC1` [BGJ398], the IC50 in experiment [1] (setting [13]) is greater than 10 µM; in experiment [2] (BaF3, parental cells with IL-3, CCK-8, 72 h), 5.66 ± 0.88 µM; in [7] (BaF3, CCK-8, 72 h, read-out: IC50 (μΜ) Ba/F3‐FGFR1‐V561F), 4.25 ± 0.064 µM; in experiment [7] (BaF3, bound stated, read-out: IC50 Ba/F3‐FGFR1‐V561F), greater than 0.33 µM; in experiment [8] (BaF3, CCK-8, 72 h) it was 0.082 ± 0.0055 µM; in [9] (BaF3, CCK-8, 72 h), 0.031 ± 0.0029 µM. In addition, the IC50 in experiment [10] (BaF3, CCK-8, 72 h, read-out: IC50 (μΜ) Ba/F3‐FGFR1‐K656E) was 0.33 ± 0.0029 µM; in experiment [10] (BaF3, bound stated, read-out: IC50 Ba/F3‐FGFR1‐K656E), greater than 0.33 µM; in experiment [11] (BaF3, CCK-8, 72 h, read-out: IC50 (μΜ) Ba/F3‐FGFR1‐V561M) it was 4.38 ± 0.28 µM; in experiment [11] (BaF3, bound stated, read-out: IC50 Ba/F3‐FGFR1‐V561M), greater than 0.33 µM. The “tumor growth inhibition (TGI)” value is 2.4% in experiment [3] (30 mg/kg, oral gavage, once every day) and 64.2% in [4] (10 mg/kg, once every day). Also, in experiment [5] (1000 nM), the “effect on cell cycle” value is reported as “weak effect”. The effect on apoptosis result in [6] (1000 nM) is given as “weak effect”. Further, in experiment [12] (300 nM), the “activation of FGFR1 and its signal pathway” value is given as “no effects”.
For the molecule `Cc1ccc(C(=O)Nc2ccc(CN3CCN(C)CC3)c(C(F)(F)F)c2)cc1C#Cc1cnc2[nH]ncc2c1` [GZD824], the IC50 is greater than 1 µM in experiment [1] (setting [13]); 2 ± 0.782 µM in [1] (read-out: antiproliferative IC50, MDA‐MB‐231, negative control); 1.71 ± 0.59 µM in [2] (BaF3, 72 h); 0.012 ± 0.0005 µM in [7] (BaF3, 72 h, read-out: IC50 (μΜ) Ba/F3‐FGFR1‐V561F); 0.012 ± 0.002 µM in [8] (BaF3, 72 h); 0.0081 ± 0.0011 µM in experiment [9] (BaF3, 72 h). The IC50 in [10] (BaF3, 72 h, read-out: IC50 (μΜ) Ba/F3‐FGFR1‐K656E) turned out to be 0.0206 ± 0.0008 µM; in experiment [11] (BaF3, 72 h, read-out: IC50 (μΜ) Ba/F3‐FGFR1‐V561M), 0.055 ± 0.0037 µM. In addition, the “tumor growth inhibition (TGI)” value came to 73.4% in experiment [3] (20 mg/kg, p.o., q2d) and 76.5% in experiment [4] (20 mg/kg). In addition, the “IHC (pFGFR1) and TUNEL in tumor tissues” value in experiment [3] (12 days) is “inhibits the FGFR1 activation and induces apoptosis”; in experiment [4] (12 days), “inhibits the FGFR1 activation and induces apoptosis”. This molecule also displayed a G0/G1 phase in [5] (100 nM, 24 h) of 71.13%. In experiment [6] (100 nM, 48 h), this molecule displayed an apoptosis of 71.01%. The “FGFR1 phosphorylation, downstream FRS2 and ERK1/2” value in experiment [12] (4 h, 3.7 nM to 300 nM) is recorded as “dose‐dependent inhibition”.

The values above are taken from publication PMC8290231 (Cancer Medicine, 2021).
